What all share (assay): kinase panel
What all share (assay type): biochemical

One experiment concerns the target cSRC(h) (Homo sapiens, UniProt P12931). The text has this: (§1) We profiled three compounds from the series across the kinome (Table S1).
(§2) Ta b l e S1. The % inhibition of compounds 4, 5r [SU1261], and 6g [SU1349] against a
(§3) panel of kinase enzymes. We proϐiled three compounds from the series across 231
(§4) kinases. For SU1349, given its structural similarity with SU1261, we selected 98 from the
(§5) Tested kinase % inhibiƟon

A further experiment concerns the target T1, NEK2(h) (Homo sapiens, UniProt P51955).
T1 sequence (P51955 1-445): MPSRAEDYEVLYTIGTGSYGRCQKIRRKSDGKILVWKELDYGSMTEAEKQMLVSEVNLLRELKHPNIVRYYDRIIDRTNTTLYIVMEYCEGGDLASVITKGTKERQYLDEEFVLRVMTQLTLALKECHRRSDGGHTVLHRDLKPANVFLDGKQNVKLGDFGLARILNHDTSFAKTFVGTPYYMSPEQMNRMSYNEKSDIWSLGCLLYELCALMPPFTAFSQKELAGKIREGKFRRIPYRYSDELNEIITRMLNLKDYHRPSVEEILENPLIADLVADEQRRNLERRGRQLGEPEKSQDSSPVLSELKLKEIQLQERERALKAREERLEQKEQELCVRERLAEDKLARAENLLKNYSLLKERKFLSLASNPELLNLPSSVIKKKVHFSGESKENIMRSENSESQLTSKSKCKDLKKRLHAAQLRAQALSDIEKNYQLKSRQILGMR
Excerpt: as §1, §2, §3, §4, §5

The target in another experiment is CaMKIδ(h) (Homo sapiens, UniProt Q8IU85).
Chain of CaMKIδ(h) (Q8IU85 whole entry): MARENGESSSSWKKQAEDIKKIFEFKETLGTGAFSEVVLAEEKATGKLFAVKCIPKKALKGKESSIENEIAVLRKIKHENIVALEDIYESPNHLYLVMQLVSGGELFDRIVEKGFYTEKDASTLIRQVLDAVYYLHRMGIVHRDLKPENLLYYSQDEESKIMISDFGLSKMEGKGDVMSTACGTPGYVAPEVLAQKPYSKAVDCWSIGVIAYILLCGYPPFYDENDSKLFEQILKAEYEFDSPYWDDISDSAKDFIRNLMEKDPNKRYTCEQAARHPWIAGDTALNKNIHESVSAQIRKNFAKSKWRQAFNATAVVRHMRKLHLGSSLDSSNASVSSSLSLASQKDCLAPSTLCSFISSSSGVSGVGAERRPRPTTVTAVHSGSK
Excerpt: as §1, §2, §3, §4, §5

The target of another experiment is MSK1(h) (Homo sapiens, UniProt O75582).
Excerpt: as §1, §2, §3, §4, §5

A further experiment deals with T2, CaMKIV(h) (Homo sapiens, UniProt Q16566).
T2 sequence (Q16566 1-473): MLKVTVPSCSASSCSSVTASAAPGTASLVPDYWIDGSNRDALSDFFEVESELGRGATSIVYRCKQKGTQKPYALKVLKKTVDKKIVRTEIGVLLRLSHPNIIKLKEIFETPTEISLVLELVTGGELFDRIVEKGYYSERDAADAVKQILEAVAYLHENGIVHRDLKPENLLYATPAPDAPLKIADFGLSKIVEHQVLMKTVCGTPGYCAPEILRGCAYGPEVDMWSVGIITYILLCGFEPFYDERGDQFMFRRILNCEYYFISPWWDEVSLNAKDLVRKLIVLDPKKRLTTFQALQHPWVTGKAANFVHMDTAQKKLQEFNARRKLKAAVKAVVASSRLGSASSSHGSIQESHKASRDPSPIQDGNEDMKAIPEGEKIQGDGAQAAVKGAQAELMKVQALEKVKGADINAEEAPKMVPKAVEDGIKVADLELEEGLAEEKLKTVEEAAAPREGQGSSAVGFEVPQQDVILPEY
Excerpt: as §1, §2, §3, §4, §5

The target of a further experiment is Fes(h) (Homo sapiens, UniProt P07332).
Excerpt: as §1, §2, §3, §4, §5

In the next experiment the target is T3, ARK5(h) (Homo sapiens, UniProt O60285).
T3 sequence (O60285 1-661): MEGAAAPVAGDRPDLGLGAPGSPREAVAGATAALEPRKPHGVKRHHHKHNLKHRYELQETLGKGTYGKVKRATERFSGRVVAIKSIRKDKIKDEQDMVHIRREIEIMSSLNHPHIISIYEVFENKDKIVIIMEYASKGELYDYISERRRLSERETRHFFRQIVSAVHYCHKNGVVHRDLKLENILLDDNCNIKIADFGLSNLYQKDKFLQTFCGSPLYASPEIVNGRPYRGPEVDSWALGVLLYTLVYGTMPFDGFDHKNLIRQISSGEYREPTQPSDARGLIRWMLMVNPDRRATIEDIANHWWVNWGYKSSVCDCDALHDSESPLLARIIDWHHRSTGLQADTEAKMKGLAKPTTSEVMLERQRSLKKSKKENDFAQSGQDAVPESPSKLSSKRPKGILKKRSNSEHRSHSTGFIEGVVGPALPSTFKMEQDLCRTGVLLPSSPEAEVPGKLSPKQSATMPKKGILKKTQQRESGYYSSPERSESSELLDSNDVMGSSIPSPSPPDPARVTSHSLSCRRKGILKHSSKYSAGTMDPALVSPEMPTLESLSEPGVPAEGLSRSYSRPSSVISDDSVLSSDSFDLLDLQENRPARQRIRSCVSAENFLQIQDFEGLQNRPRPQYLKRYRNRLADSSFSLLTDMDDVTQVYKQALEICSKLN
Excerpt: as §1, §2, §3, §4, §5

For a further experiment, the target named is MAPK1(h) (Homo sapiens, UniProt P27361).
Chain of MAPK1(h) (P27361 whole entry): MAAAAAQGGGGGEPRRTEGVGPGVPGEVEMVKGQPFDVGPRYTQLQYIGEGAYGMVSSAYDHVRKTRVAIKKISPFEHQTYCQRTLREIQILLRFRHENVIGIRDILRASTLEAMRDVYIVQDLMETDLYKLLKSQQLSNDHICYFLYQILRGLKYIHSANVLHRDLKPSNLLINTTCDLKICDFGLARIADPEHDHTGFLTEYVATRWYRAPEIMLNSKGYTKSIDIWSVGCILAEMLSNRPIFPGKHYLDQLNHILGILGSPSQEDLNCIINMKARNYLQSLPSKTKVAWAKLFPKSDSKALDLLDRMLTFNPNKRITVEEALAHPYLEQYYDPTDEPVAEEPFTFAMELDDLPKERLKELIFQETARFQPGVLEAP
Excerpt: as §1, §2, §3, §4, §5

The target of a further experiment is BRK(h) (Homo sapiens, UniProt Q13882).
Chain of BRK(h) (Q13882 whole entry): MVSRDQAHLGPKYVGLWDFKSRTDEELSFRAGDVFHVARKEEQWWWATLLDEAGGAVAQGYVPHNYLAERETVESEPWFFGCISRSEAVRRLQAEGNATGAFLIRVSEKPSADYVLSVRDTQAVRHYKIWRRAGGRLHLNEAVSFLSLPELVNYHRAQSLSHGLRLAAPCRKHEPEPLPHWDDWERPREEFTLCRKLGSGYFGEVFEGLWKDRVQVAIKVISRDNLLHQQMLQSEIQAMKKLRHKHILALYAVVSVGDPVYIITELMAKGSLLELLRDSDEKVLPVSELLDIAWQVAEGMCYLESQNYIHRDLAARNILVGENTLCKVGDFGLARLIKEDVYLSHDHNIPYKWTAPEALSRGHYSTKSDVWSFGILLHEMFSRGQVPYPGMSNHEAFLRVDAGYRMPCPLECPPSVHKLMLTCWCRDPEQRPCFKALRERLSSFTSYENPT
Excerpt: as §1, §2, §3, §4, §5

The next experiment concerns the target T4, CHK1(h) (Homo sapiens, UniProt O14757).
T4 sequence (O14757 1-476): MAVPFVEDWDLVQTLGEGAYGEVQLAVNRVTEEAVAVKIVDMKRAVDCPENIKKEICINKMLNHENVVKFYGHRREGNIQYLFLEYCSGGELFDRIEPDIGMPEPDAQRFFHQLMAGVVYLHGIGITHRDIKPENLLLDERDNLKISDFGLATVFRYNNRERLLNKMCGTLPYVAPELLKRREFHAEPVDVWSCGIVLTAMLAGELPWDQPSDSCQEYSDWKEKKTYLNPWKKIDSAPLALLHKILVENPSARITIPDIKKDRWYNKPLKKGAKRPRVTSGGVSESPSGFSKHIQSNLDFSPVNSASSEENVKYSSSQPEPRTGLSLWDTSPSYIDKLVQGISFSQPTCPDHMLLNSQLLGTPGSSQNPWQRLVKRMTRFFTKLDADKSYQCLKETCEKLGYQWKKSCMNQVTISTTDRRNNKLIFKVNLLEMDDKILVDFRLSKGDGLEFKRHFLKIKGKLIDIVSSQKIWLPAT
Excerpt: as §1, §2, §3, §4, §5

The target in a further experiment is HIPK1(h) (Homo sapiens, UniProt Q86Z02).
Chain of HIPK1(h) (Q86Z02 whole entry): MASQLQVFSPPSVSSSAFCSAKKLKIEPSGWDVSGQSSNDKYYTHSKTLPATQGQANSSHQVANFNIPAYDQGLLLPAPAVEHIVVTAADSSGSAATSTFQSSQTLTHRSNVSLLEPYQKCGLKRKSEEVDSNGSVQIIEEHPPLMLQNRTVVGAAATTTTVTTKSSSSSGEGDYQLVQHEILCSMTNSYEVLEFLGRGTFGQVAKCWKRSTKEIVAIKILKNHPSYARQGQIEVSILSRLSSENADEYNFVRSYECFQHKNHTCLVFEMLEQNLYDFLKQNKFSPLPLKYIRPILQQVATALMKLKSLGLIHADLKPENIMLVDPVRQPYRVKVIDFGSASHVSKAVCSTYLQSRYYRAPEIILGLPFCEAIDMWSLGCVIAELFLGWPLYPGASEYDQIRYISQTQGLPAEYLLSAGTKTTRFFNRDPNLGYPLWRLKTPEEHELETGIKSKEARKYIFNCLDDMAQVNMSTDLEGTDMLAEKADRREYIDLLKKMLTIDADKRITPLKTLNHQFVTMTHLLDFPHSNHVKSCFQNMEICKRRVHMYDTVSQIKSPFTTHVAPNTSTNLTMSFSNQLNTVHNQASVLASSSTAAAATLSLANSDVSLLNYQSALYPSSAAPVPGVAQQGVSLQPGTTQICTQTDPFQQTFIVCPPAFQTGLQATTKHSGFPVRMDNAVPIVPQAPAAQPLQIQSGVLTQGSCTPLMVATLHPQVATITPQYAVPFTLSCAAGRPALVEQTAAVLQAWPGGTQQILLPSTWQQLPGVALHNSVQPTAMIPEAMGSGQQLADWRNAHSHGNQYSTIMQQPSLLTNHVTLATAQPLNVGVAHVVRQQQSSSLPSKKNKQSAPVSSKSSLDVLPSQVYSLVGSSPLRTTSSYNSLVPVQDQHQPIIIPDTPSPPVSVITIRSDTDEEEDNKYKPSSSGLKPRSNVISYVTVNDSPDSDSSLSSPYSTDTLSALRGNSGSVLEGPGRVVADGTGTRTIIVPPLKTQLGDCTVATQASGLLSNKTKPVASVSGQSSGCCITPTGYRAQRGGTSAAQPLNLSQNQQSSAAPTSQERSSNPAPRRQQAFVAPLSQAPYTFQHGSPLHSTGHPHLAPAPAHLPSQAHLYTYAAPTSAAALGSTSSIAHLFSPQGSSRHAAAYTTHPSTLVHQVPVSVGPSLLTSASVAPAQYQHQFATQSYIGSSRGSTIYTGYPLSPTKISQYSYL
Excerpt: as §1, §2, §3, §4, §5

For a further experiment, the target named is JNK1α1(h) (Homo sapiens, UniProt P45983).
Chain of JNK1α1(h) (P45983 1-384 isoform P45983-2): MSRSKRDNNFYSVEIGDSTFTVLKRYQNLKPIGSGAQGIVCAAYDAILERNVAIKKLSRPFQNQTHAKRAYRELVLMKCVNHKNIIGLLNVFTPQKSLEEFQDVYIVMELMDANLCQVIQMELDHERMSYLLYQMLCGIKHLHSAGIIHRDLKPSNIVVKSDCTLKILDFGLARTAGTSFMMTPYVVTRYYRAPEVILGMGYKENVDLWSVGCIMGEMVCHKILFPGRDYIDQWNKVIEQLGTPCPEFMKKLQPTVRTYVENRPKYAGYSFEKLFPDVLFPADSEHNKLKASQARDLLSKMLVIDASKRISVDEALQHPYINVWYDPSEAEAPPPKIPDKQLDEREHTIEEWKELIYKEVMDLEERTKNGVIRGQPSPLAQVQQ
Excerpt: as §1, §2, §3, §4, §5

In a further experiment the target is PKCη(h) (Homo sapiens, UniProt P24723).
Chain of PKCη(h) (P24723 whole entry): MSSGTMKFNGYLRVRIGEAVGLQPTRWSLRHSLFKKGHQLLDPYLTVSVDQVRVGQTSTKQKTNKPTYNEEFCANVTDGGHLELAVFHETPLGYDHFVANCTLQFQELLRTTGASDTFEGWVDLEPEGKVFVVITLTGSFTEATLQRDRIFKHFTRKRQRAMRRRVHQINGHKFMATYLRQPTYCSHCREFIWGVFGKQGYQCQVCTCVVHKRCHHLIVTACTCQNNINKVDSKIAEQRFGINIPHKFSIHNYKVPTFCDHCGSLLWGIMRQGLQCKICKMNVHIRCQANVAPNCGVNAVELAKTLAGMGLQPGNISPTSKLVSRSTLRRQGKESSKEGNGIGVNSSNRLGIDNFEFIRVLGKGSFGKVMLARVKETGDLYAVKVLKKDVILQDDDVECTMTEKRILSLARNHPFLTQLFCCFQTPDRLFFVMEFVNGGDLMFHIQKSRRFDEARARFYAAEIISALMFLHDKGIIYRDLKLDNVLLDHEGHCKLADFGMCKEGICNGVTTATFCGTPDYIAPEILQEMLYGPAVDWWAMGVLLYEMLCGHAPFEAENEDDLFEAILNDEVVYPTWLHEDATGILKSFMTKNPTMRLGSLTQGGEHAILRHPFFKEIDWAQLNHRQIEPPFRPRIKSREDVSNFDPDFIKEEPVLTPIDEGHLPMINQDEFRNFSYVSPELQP
Excerpt: as §1, §2, §3, §4, §5

The target of another experiment is CDK5/p35(h) (Homo sapiens, UniProt Q00535).
Chain of CDK5/p35(h) (Q00535 whole entry): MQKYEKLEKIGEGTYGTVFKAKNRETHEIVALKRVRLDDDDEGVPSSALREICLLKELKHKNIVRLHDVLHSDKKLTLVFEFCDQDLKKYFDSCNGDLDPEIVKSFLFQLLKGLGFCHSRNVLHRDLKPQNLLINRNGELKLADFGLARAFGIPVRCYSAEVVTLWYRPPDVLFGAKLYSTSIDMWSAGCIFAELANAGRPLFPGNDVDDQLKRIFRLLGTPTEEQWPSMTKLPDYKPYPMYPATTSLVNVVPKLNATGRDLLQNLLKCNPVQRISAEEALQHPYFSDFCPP
Chain of CDK5/p35(h) (Q15078 whole entry partner): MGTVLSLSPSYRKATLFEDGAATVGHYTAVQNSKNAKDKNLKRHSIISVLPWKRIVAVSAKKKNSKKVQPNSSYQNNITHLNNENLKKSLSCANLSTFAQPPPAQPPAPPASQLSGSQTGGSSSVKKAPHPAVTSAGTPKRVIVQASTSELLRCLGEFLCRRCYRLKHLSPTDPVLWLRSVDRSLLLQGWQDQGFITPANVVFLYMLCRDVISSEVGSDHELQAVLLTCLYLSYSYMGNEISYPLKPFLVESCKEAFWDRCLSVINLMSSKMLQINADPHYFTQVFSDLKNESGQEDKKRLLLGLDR
Excerpt: as §1, §2, §3, §4, §5

This note sets out measurements from publication PMC11314561, “Design and Synthesis of Novel Aminoindazole-pyrrolo[2,3-b]pyridine Inhibitors of IKKα That Selectively Perturb Cellular Non-Canonical NF-κB Signalling” (Molecules, 2024).

Molecules are shown by their SMILES.

Chain of cSRC(h) (P12931 whole entry): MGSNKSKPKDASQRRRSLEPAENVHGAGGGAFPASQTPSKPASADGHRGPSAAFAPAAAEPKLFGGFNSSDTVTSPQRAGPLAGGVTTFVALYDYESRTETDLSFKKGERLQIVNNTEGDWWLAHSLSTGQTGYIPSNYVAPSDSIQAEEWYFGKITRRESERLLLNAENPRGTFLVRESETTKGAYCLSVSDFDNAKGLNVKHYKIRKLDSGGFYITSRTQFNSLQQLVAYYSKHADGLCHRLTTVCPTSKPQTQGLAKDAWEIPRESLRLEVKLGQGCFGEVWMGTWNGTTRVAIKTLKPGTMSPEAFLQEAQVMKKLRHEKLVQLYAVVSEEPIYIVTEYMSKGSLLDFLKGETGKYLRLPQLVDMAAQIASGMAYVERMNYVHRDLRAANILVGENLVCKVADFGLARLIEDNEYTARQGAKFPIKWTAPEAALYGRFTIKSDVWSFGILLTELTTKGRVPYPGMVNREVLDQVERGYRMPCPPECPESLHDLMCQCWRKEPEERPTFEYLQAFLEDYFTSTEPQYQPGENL

Consider `Nc1n[nH]c2ccc(-c3ccnc4[nH]c(-c5ccnc(OCc6ccccc6)c5)cc34)cc12` [Compound 6g [SU1349]], for which the inhibition at 1 µM at cSRC(h) was -28%; against NEK2(h), 8%; against CaMKIδ(h), 24%; against MSK1(h), -4%; on CaMKIV(h), -9%; at Fes(h), -31%. The inhibition at 1 µM was 3% against ARK5(h); 18% on MAPK1(h); 8% against BRK(h); -9% against CHK1(h); 5% against HIPK1(h); 25% at JNK1α1(h). Further, the results for the inhibition at 1 µM against PKCη(h) and on CDK5/p35(h) were -1% and 90%, respectively.

As to `Nc1n[nH]c2ccc(-c3ccnc4[nH]c(-c5cccc(OCc6ccccc6)c5)cc34)cc12` [Compound 5r [SU1261]], the inhibition at 1 µM against cSRC(h) is 26%; on NEK2(h), 4%; against CaMKIδ(h), 9%; on MSK1(h), -24%; on CaMKIV(h), 6%; on Fes(h), 50%. Moreover, the inhibition at 1 µM is 33% against ARK5(h); -4% against MAPK1(h); 17% at BRK(h); -2% on CHK1(h); -11% against HIPK1(h); 12% against JNK1α1(h). The inhibition at 1 µM against PKCη(h) was 2%; at CDK5/p35(h), 96%.

Turning to `Nc1n[nH]c2ccc(-c3ccnc4[nH]c(-c5ccccc5)cc34)cc12` [Compound 4], the inhibition at 1 µM was 42% against cSRC(h); 5% against NEK2(h); -8% against CaMKIδ(h); -2% on MSK1(h); 4% against CaMKIV(h); 80% against Fes(h). Moreover, the inhibition at 1 µM on ARK5(h) was 87%; on MAPK1(h), 46%; against BRK(h), 46%; against CHK1(h), -2%; against HIPK1(h), 14%; at JNK1α1(h), 80%. In addition, the results for the inhibition at 1 µM against PKCη(h) and on CDK5/p35(h) were 2% and 101%, respectively.

For orientation: inhibition means the change of the read-out against control, counted positive when it falls.
